We go through seven compounds from paper PMC9710775, “Bitter taste sensitivity in domestic dogs (Canis familiaris) and its relevance to bitter deterrents of ingestion” (PLOS ONE, 2022).

Assay in all cases: calcium imaging (Cal520-AM), HEK293T cells
Type in all cases: cell-based

In one assay the target is T1, dTas2r4 (Canis lupus, UniProt A0A8I3SCV7).
T1 construct: gene TAS2R4; HEK293T-PEAKrapid cells with Galpha16i/o44
T1 sequence (A0A8I3SCV7 1-299): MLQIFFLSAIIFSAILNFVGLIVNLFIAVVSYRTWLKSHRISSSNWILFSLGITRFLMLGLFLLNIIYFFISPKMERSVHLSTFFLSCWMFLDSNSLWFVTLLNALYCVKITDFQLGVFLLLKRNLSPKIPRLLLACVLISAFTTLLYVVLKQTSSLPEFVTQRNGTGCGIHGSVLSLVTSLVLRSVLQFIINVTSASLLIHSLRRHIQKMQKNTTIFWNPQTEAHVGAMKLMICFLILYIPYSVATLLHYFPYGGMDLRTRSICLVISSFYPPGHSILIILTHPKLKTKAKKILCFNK
The source says:
calcium imaging (Cal520-AM), HEK293T cells on dTas2r4

The target of a further assay is T2, dTas2r1 (Canis lupus, UniProt Q2ABE0).
T2 construct: gene TAS2R1; HEK293T-PEAKrapid cells with Galpha16i/o44; gene on dog chromosome 34
T2 sequence (Q2ABE0 1-297): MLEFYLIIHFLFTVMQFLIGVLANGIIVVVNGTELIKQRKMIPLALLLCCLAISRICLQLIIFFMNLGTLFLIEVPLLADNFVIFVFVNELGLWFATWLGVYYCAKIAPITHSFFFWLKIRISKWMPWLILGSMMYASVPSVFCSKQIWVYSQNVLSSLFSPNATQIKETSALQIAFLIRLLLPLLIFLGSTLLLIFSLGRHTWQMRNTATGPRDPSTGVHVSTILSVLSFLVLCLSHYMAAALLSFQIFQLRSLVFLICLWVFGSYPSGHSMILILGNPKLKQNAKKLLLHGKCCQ
The settings on record: agonist; Galpha16i/o44 cells; lowest concentration differing from mock cells; EC50 not determined. The source says:
calcium imaging (Cal520-AM), HEK293T cells on dTas2r1

The target of a further assay is T3, dTas2r10 (Canis lupus, UniProt Q2ABD4).
T3 construct: gene TAS2R10; HEK293T-PEAKrapid cells with Galpha16i/o44
T3 sequence (Q2ABD4 1-322): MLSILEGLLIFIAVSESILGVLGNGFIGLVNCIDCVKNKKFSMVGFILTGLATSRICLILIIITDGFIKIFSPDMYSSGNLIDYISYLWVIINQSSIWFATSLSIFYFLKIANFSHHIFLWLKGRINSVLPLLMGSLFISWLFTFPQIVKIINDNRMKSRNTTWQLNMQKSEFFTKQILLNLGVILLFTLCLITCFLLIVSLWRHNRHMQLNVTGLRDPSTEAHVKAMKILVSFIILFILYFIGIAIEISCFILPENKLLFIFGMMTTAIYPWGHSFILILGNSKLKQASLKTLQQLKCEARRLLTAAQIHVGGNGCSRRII
The source says: calcium imaging (Cal520-AM), HEK293T cells on dTas2r10

The next assay has as its target T4, dTas2r41 (Canis lupus, UniProt A0A8I3NKU5).
T4 construct: gene TAS2R41; HEK293T-PEAKrapid cells with Galpha16i/o44
T4 sequence (A0A8I3NKU5 1-308): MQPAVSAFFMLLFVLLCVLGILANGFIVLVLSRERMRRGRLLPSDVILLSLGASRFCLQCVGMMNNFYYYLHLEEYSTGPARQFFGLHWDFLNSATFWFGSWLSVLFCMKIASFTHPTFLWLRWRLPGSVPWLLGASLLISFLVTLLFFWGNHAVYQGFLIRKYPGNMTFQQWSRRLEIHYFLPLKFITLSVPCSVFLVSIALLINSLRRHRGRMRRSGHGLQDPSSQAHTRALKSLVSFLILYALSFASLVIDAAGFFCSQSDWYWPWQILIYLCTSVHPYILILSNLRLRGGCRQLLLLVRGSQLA
Particulars: agonist; Galpha16i/o44 cells; lowest concentration differing from mock cells; EC50 not determined. The source says:
calcium imaging (Cal520-AM), HEK293T cells on dTas2r41

Another assay has as its target T5, dTas2r5 (Canis lupus, UniProt Q2ABD6).
T5 construct: gene TAS2R5; HEK293T-PEAKrapid cells with Galpha16i/o44
T5 sequence (Q2ABD6 1-295): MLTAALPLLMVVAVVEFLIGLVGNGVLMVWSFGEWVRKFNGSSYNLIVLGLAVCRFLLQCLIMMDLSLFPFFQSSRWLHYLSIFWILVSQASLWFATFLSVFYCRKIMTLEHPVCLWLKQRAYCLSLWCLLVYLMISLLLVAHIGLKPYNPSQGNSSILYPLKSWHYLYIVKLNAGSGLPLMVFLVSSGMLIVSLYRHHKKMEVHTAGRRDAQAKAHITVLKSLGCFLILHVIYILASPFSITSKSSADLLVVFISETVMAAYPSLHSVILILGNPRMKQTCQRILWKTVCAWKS
From the text: calcium imaging (Cal520-AM), HEK293T cells on dTas2r5

Like-named read-outs stand apart in the source and are kept apart here.

As for `O=C1NS(=O)(=O)c2cc([N+](=O)[O-])ccc21` [6-Nitrosaccharin], the EC50 at dTas2r4 (read-out: dTas2r4) is 1.12 mM. The dTas2r1 on dTas2r1 was determined as 0.041 mM.

On to `COc1cccc2c1cc([N+](=O)[O-])c1c(C(=O)O)cc3c(c12)OCO3` [Aristolochic acid I], for which the EC50 at dTas2r4 came to 0.19 mM. As for `CC(=O)OC(C)(C)/C=C/C(=O)[C@](C)(O)[C@H]1[C@H](O)C[C@@]2(C)[C@@H]3CC=C4[C@@H](C[C@H](O)C(=O)C4(C)C)[C@]3(C)C(=O)C[C@]12C` [Cucurbitacin B], the EC50 at dTas2r10 was determined as 2400 nM.

Turning to `CC[N+](CC)(CC(=O)Nc1c(C)cccc1C)Cc1ccccc1` [Denatonium benzoate], the EC50 on dTas2r4 (read-out: dTas2r4) was determined as 4.35 mM. As for `O=c1cc(-c2ccccc2)oc2ccccc12` [Flavone], the dTas2r1 on dTas2r1 came to 0.00082 mM. Take `CC[N+](C)(CC)CCOC(=O)C(O)(c1ccccc1)C1CCCCC1` (stereo not drawn) [Oxyphenonium bromide]: at dTas2r41, the dTas2r41 is given as 11.11 mM. Moreover, the EC50 at dTas2r4 (read-out: dTas2r4) is 4.76 mM. On to `OC[C@H]1O[C@H](O[C@]2(CCl)O[C@H](CCl)[C@@H](O)[C@@H]2O)[C@H](O)[C@@H](O)[C@H]1Cl` [Sucralose], for which the EC50 on dTas2r5 is 42.9 mM.
